Usually IC50 stands for the concentration that inhibits the measured activity by half.

Results on 26 compounds are retold here after patent US8598202B2, “Aryl-hydroxyethylamino-pyrimidines and triazines as modulators of fatty acid amide hydrolase” (Janssen Pharmaceutica NV, priority 2008, dated 2013).

In one assay the target is T1, Rat FAAH-1 (Rattus norvegicus, UniProt P97612).
T1 sequence (P97612 1-579): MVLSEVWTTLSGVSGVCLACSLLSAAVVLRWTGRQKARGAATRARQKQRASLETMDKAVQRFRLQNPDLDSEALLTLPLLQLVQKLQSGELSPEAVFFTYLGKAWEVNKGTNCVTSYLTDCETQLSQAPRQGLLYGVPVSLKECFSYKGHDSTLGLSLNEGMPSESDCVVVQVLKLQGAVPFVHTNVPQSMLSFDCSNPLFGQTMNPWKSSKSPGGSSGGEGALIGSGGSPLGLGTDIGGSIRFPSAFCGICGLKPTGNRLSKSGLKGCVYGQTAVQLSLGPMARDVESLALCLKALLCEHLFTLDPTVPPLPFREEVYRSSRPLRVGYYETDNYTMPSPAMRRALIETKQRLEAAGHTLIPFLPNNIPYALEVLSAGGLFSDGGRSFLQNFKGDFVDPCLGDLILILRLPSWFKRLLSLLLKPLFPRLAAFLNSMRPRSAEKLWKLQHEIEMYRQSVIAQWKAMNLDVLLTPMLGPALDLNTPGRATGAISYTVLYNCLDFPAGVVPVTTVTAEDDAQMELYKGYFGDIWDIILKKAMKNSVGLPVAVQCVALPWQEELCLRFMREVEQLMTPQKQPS
Briefly: Assay Method 2: rat FAAH-1 assay, 3H-anandamide hydrolysis in homogenate of SK-N-MC cells transfected with rat FAAH.

In another assay the target is T2, FAAH (Homo sapiens, UniProt O00519).
T2 sequence (O00519 1-579): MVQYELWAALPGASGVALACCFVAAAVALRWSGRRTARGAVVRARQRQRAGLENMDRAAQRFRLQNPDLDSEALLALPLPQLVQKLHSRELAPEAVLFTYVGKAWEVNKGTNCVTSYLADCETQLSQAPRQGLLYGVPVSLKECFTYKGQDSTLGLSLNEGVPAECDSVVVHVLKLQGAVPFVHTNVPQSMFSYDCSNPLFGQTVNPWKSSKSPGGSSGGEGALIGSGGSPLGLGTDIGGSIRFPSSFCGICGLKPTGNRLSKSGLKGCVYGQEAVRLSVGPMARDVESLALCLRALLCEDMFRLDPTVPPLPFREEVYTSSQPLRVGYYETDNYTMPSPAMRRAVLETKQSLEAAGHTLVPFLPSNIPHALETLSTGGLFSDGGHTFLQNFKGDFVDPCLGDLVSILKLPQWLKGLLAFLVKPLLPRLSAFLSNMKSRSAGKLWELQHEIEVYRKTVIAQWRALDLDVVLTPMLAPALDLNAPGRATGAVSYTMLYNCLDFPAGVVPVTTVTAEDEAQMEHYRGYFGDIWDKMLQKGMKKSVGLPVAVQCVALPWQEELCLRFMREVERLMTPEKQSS
Briefly: Assay Method 1: FAAH assay, 3H-anandamide hydrolysis in homogenate of T84 cells or SK-N-MC cells transfected with human FAAH.

Where a name gives a salt, the structure may show the parent alone. Some results are limits rather than exact numbers.

Take `CC(=O)c1ccc(-c2cc(NC[C@H](O)c3ccccc3)ncn2)cc1` [Example 17, 1-[4-(6-{[(2R)-2-Hydroxy-2-phenylethyl]amino}pyrimidin-4-yl)phenyl]ethanone]: the values for the half-inhibitory concentration (IC50) on Rat FAAH-1 and against FAAH were 10 nM and 12 nM, respectively.
In the case of `N#Cc1cc(C(O)CNc2cc(-c3ccc(C(F)(F)F)c(Cl)c3)ncn2)ccc1F` (stereo not shown) [Example 210], the IC50 on Rat FAAH-1 and at FAAH was 20 nM each time.
For `O[C@@H](CNc1cc(-c2ccc3cc[nH]c3c2)ncn1)c1ccccc1` [Example 53, (1R)-2-{[6-(1H-Indol-6-yl)pyrimidin-4-yl]amino}-1-phenylethanol trifluoroacetic acid salt], the values for the IC50 against Rat FAAH-1 and at FAAH were > 10000 nM and 765 nM, respectively.
In the same order, the values of `Cc1noc2cc(-c3cc(NC[C@H](O)c4ccccc4)ncn3)ccc12` [Example 165, (1R)-2-{[6-(3-Methyl-1,2-benzisoxazol-6-yl)pyrimidin-4-yl]amino}-1-phenylethanol] are 19 nM and 4 nM.
In the same order, the values of `Cc1ccc(-c2cc(NCC(O)c3ccccc3)ncn2)cc1C` (stereo not shown) [Example 223, 2-{[6-(3,4-Dimethylphenyl)pyrimidin-4-yl]amino}-1-phenylethanol] are 707 nM and 144 nM.
In the case of `OC(CNc1cc(-c2ccc(C(F)(F)F)c(Cl)c2)ncn1)c1ccc(-c2ccccn2)s1` (stereo not shown) [Example 209, 2-({6-[3-Chloro-4-(trifluoromethyl)phenyl]pyrimidin-4-yl}amino)-1-(5-pyridin-2-ylthiophen-2-yl)ethanol], the 50% inhibitory concentration (IC50) against Rat FAAH-1 was determined as 36 nM; against FAAH, 12 nM.
In the same order, the values of `Cc1cc(-c2cc(NC[C@H](O)c3ccccc3)ncn2)ccc1Cl` [Example 26, (1R)-2-{[6-(4-Chloro-3-methylphenyl)pyrimidin-4-yl]amino}-1-phenylethanol trifluoroacetic acid salt] are 163 nM and 52 nM.
The matching figures for `N#Cc1ccc(C(O)CNc2cc(-c3ccc(C(F)(F)F)c(Cl)c3)ncn2)cc1` (stereo not shown) [Example 191, 4-[2-({6-[3-Chloro-4-(trifluoromethyl)phenyl]pyrimidin-4-yl}amino)-1-hydroxyethyl]benzonitrile]: 7 nM and 19 nM.
As to `CCOc1ccc(-c2cc(NCC(O)c3ccccc3)ncn2)cc1` (stereo not shown) [Example 11, 2-({6-[4-(Ethyloxy)phenyl]pyrimidin-4-yl}amino)-1-phenylethanol], the IC50 stood at 375 nM at Rat FAAH-1 and 34 nM on FAAH.
Take `C[C@@H]([C@H](O)c1ccccc1)N(C)c1cc(-c2ccc(OC(F)(F)F)cc2)ncn1` [Example 121, (1R,2S)-2-[Methyl(6-{4-[(trifluoromethyl)oxy]phenyl}pyrimidin-4-yl)amino]-1-phenylpropan-1-ol]: the IC50 against Rat FAAH-1 is 3000 nM; against FAAH, 580 nM.
The matching figures for `O[C@@H](CNc1cc(-c2cc3cc(OC(F)(F)F)ccc3s2)ncn1)c1ccccc1` [Example 185, (1R)-1-Phenyl-2-({6-[5-(trifluoromethoxy)-1-benzothiophen-2-yl]pyrimidin-4-yl}amino)ethanol trifluoroacetic acid salt]: 90 nM and 20 nM.
Take `O[C@@H](CNc1cc(-c2ccc(C(F)(F)F)cc2C(F)(F)F)ncn1)c1ccccc1` [Example 152, (1R)-2-({6-[2,4-Bis(trifluoromethyl)phenyl]pyrimidin-4-yl}amino)-1-phenylethanol trifluoroacetic acid salt]: the IC50 is > 10000 nM at Rat FAAH-1 and 4000 nM against FAAH.
Regarding `O[C@@H](CNc1cc(-c2ccc3[nH]ccc3c2)ncn1)c1ccccc1` [Example 85, (1R)-2-{[6-(1H-Indol-5-yl)pyrimidin-4-yl]amino}-1-phenylethanol trifluoroacetic acid salt], the IC50 against Rat FAAH-1 was 5000 nM; against FAAH, 18 nM.
With `O[C@@H](CNc1cc(-c2cnc(N3CCOCC3)nc2)ncn1)c1ccccc1` [Example 69, (1R)-2-[(2′-Morpholin-4-yl-4,5′-bipyrimidin-6-yl)amino]-1-phenylethanol], the IC50 against Rat FAAH-1 is > 10000 nM; against FAAH, 900 nM.
Take `N#Cc1ccc(-c2cc(NCC(O)c3ccccc3)ncn2)cc1` (stereo not shown) [Example 226, 4-{6-[(2-Hydroxy-2-phenylethyl)amino]pyrimidin-4-yl}benzonitrile]: the results for the 50% inhibitory concentration (IC50) on Rat FAAH-1 and against FAAH were 663 nM and 341 nM, respectively.
In the same order, the values of `CCNc1nc(NC[C@H](O)c2ccccc2)cc(-c2ccc(C(F)(F)F)c(Cl)c2)n1` [Example 159, (1R)-2-({6-[3-Chloro-4-(trifluoromethyl)phenyl]-2-(ethylamino)pyrimidin-4-yl}amino)-1-phenylethanol trifluoroacetic acid salt] are 7 nM and 20 nM.
For `CN(C)c1nc(NC[C@H](O)c2ccccc2)cc(-c2ccc(C(F)(F)F)c(Cl)c2)n1` [Example 101, (1R)-2-({6-[3-Chloro-4-(trifluoromethyl)phenyl]-2-(dimethylamino)pyrimidin-4-yl}amino)-1-phenylethanol trifluoroacetic acid salt], the concentration for half-maximal inhibition (IC50) against Rat FAAH-1 came out at 80 nM; at FAAH it was 32 nM.
The matching figures for `OC(CNc1cc(-c2ccc(C(F)(F)F)c(Cl)c2)ncn1)c1ccc(F)c(Cl)c1` (stereo not shown) [Example 134, 1-(3-Chloro-4-fluorophenyl)-2-({6-[3-chloro-4-(trifluoromethyl)phenyl]pyrimidin-4-yl}amino)ethanol trifluoroacetic acid salt]: 19 nM and 27 nM.
Turning to `N#Cc1ccc(-c2cc(NC[C@H](O)c3ccccc3)ncn2)cn1` [Example 77, 5-(6-{[(2R)-2-Hydroxy-2-phenylethyl]amino}pyrimidin-4-yl)pyridine-2-carbonitrile], the IC50 was 2200 nM at Rat FAAH-1 and 1000 nM on FAAH.
The matching figures for `CC(C)Oc1ccc(-c2cc(NC[C@H](O)c3ccccc3)ncn2)cc1Cl` [Example 19, (1R)-2-[(6-{3-Chloro-4-[(1-methylethyl)oxy]phenyl}pyrimidin-4-yl)amino]-1-phenylethanol]: 12 nM and 20 nM.
The matching figures for `OC(CNc1cc(-c2ccc(OC(F)(F)F)cc2)ncn1)c1cccnc1` (stereo not shown) [Example 124, 1-Pyridin-3-yl-2-[(6-{4-[(trifluoromethyl)oxy]phenyl}pyrimidin-4-yl)amino]ethanol]: 4000 nM and 800 nM.
In the same order, the values of `CC(C)(C#N)c1ccc(-c2cc(NC[C@H](O)c3ccccc3)ncn2)cc1` [Example 50, 2-[4-(6-{[(2R)-2-Hydroxy-2-phenylethyl]amino}pyrimidin-4-yl)phenyl]-2-methylpropanenitrile trifluoroacetic acid salt] are 985 nM and 92 nM.
For the compound `OC(CNc1cc(-c2ccc(C(F)(F)F)c(Cl)c2)ncn1)c1cccc(C(F)(F)F)c1` (stereo not shown) [Example 135, 2-({6-[3-Chloro-4-(trifluoromethyl)phenyl]pyrimidin-4-yl}amino)-1-[3-(trifluoromethyl)phenyl]ethanol trifluoroacetic acid salt], the 50% inhibitory concentration (IC50) on Rat FAAH-1 amounted to 16 nM; against FAAH, 100 nM.
As for `CCOc1ccc(-c2cc(NC[C@H](O)c3ccccc3)ncn2)cn1` [Example 64, (1R)-2-{[6-(6-Ethoxypyridin-3-yl)pyrimidin-4-yl]amino}-1-phenylethanol], the IC50 against Rat FAAH-1 came out at 220 nM; on FAAH, 50 nM.
In the same order, the values of `Cc1n[nH]c2cc(-c3cc(NC[C@H](O)c4ccccc4)ncn3)ccc12` [Example 140, (1R)-2-{[6-(3-Methyl-1H-indazol-6-yl)pyrimidin-4-yl]amino}-1-phenylethanol trifluoroacetic acid salt] are 265 nM and 127 nM.
For the compound `O[C@@H](CNc1cc(-c2ccc(C(F)(F)F)c(Cl)c2)nc(NC2CC2)n1)c1ccccc1` [Example 162, (1R)-2-({6-[3-Chloro-4-(trifluoromethyl)phenyl]-2-(cyclopropylamino)pyrimidin-4-yl}amino)-1-phenylethanol trifluoroacetic acid salt], the values for the concentration for half-maximal inhibition (IC50) against Rat FAAH-1 and on FAAH were 130 nM and 570 nM, respectively.
